Reference: patent US9150589B2, “Polymorphous forms III and IV of N-benzoyl—staurosporine” (NOVARTIS AG, priority 2009, dated 2015)

Experiment: Thermal decomposition on heating under nitrogen atmosphere
Assay type: physicochemical
Details: heating rate of 20K/min under nitrogen atmosphere
Method: The crystalline form III decomposes above 270° C., when heated with a heating rate of 20K/min under nitrogen atmosphere.
The crystalline form IV decomposes at about 270° C. when heated at 20K/min under nitrogen atmosphere.

Compound | decomposition temperature
CO[C@@H]1[C@H](N(C)C(=O)c2ccccc2)C[C@H]2O[C@]1(C)n1c3ccccc3c3c4c(c5c6ccccc6n2c5c31)C(=O)NC4 [crystalline form III, N-[(9S,10R,11R,13R)-2,3,10,11,12,13-hexahydro-10-methoxy-9-methyl-1-oxo-9,13-epoxy-1H,9H-diindolo[1,2,3-gh:3′,2′,1′-lm]pyrrolo[3,4-j][1,7]benzodiazonin-11-yl]-N-methylbenzamide] | above 270 °C
CO[C@@H]1[C@H](N(C)C(=O)c2ccccc2)C[C@H]2O[C@]1(C)n1c3ccccc3c3c4c(c5c6ccccc6n2c5c31)C(=O)NC4 [crystalline form IV, N-[(9S,10R,11R,13R)-2,3,10,11,12,13-hexahydro-10-methoxy-9-methyl-1-oxo-9,13-epoxy-1H,9H-diindolo[1,2,3-gh:3′,2′,1′-lm]pyrrolo[3,4-j][1,7]benzodiazonin-11-yl]-N-methylbenzamide] | about 270 °C
